Results taken from publication PMC11487561 (ACS Chemical Neuroscience, 2024).

Legend:
Assay in all cases: Lead Profiling Screen – Eurofins Panlabs
Adenosine A1 = molecular target: T1, Adenosine A1 (Homo sapiens, UniProt P30542); format: binding; details: read-out: % inh at 10 μM
T1 construct: Eurofins Panlabs

[1] = system: Calcium Channel L-Type, Benzothiazepine; format: binding, rat
Prostanoid EP4 = Prostanoid EP4 (Homo sapiens, UniProt P35408); format: binding; details: read-out: % inh at 10 μM
Prostanoid EP4, sequence (P35408 whole entry): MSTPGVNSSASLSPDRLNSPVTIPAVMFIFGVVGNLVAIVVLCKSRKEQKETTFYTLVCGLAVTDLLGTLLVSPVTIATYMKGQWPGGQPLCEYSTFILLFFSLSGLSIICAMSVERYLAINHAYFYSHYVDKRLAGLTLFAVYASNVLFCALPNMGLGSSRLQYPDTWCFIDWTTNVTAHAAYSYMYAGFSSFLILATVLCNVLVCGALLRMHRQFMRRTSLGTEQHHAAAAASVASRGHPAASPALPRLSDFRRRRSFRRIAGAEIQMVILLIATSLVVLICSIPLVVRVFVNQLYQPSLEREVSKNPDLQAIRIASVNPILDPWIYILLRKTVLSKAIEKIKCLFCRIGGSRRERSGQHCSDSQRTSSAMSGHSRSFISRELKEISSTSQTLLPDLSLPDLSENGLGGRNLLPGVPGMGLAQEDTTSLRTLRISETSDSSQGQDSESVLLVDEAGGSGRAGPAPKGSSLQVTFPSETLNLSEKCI

Androgen (Testosterone) = format: binding, human
Neuropeptide Y Y2 = Neuropeptide Y Y2 (Homo sapiens, UniProt P49146); format: binding; details: read-out: % inh at 10 μM
Neuropeptide Y Y2, sequence (P49146 whole entry): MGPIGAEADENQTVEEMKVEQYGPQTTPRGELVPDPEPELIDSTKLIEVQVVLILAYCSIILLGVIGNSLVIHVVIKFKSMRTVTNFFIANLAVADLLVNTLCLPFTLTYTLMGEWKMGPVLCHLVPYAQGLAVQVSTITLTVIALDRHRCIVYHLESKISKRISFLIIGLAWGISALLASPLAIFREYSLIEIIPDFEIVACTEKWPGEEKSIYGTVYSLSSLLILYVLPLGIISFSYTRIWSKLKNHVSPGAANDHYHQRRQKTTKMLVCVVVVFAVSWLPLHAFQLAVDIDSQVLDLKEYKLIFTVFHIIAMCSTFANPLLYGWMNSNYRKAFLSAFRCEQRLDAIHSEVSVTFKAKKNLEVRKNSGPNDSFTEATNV

Histamine H2 = Histamine H2 (Homo sapiens, UniProt P25021); format: binding; details: read-out: % inh at 10 μM
Histamine H2, sequence (P25021 whole entry): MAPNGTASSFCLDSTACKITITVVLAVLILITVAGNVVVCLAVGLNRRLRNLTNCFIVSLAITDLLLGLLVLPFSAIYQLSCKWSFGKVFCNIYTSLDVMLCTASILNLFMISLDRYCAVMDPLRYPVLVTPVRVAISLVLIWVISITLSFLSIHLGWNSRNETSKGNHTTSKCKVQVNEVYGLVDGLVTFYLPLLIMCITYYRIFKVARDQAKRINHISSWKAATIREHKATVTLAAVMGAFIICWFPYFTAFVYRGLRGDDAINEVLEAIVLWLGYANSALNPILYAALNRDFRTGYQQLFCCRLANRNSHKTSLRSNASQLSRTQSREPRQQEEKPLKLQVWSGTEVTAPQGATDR

GABAB1A = molecular target: T2, GABAB1A (Homo sapiens, UniProt Q9UBS5); format: binding; details: read-out: % inh at 10 μM
T2 construct: Eurofins Panlabs (contract screen)
T2 sequence (Q9UBS5 15-961 limits assumed): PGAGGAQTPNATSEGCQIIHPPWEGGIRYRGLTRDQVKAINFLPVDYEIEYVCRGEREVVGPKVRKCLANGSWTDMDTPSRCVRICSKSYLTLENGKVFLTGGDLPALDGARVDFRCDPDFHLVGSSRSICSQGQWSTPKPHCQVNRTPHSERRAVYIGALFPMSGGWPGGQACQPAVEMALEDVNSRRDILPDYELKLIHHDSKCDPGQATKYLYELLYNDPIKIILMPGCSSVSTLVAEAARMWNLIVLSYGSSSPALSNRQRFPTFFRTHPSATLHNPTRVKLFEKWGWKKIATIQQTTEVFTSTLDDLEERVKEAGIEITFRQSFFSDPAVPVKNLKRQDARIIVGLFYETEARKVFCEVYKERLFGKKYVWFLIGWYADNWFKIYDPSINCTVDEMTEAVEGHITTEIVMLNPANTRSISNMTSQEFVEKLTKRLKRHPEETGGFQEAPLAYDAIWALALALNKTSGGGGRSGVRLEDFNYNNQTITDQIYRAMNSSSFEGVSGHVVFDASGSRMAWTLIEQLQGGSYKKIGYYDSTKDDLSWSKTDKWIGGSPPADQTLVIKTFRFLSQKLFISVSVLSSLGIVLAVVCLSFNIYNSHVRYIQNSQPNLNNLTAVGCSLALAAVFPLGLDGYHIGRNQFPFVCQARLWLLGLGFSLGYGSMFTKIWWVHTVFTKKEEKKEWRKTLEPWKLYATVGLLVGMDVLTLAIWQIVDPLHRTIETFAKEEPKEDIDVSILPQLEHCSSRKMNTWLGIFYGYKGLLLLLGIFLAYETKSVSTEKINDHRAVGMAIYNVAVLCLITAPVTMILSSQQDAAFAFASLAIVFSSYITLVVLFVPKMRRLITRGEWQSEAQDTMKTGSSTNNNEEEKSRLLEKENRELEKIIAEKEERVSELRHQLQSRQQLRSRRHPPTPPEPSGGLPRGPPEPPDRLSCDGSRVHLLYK
T2 sequence (O75899 42-941 partner): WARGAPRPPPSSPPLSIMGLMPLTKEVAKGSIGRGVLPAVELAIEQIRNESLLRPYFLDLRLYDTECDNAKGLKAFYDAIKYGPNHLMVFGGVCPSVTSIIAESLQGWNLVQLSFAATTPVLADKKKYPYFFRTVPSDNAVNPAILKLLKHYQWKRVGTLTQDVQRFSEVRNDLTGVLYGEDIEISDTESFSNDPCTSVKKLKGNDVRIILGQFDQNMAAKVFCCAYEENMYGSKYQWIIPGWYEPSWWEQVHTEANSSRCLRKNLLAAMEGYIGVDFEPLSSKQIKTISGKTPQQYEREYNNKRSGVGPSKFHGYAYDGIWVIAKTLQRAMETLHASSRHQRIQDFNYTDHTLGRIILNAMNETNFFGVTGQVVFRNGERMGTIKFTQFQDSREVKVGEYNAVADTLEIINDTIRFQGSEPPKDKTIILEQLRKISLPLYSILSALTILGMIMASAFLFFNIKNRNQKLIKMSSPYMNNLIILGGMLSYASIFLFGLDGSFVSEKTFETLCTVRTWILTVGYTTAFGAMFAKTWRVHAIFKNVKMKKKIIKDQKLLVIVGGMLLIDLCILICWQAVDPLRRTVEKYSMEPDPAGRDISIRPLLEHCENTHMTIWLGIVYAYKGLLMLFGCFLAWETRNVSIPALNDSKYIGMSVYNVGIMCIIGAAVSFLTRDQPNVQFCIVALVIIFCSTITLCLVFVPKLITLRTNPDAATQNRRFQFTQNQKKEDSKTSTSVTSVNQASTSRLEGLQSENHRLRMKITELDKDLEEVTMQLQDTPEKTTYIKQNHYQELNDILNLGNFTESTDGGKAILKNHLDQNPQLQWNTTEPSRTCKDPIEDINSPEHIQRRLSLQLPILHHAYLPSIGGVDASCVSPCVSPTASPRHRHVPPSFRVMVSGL

[2] = molecular target: T3, Epidermal Growth Factor (EGF) (Homo sapiens, UniProt P00533); format: binding; details: read-out: % inh at 10 μM
T3 construct: Eurofins Panlabs (contract screen)
T3 sequence (P00533 25-1210): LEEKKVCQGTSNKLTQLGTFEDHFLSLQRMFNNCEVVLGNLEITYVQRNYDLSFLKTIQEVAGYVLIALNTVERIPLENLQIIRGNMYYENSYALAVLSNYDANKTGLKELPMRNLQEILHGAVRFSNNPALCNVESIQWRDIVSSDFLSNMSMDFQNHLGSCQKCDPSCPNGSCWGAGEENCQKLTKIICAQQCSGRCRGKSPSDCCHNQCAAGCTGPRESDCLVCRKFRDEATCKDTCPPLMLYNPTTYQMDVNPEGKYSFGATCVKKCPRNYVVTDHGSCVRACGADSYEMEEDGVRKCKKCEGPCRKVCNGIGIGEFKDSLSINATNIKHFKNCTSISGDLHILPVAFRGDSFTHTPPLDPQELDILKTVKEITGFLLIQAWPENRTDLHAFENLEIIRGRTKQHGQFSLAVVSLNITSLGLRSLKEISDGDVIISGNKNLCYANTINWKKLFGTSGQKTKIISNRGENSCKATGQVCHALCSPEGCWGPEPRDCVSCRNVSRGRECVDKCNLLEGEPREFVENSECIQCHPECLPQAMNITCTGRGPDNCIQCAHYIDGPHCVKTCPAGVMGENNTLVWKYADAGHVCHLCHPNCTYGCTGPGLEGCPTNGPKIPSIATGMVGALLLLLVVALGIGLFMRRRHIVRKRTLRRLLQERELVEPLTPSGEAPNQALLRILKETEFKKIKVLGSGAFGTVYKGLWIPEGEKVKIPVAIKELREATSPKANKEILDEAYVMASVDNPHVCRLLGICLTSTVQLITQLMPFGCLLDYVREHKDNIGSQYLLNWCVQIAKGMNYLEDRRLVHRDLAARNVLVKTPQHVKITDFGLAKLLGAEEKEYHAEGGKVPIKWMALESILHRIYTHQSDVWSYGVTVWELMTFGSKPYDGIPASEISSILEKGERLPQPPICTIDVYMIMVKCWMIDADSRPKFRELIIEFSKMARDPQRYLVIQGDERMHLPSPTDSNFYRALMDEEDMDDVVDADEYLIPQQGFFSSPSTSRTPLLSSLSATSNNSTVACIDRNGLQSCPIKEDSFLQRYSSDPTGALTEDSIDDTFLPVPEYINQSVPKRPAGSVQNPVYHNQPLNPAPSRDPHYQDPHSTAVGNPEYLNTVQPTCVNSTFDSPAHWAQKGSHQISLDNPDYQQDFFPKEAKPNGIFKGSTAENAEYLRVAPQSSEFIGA

T1 sequence (P30542 whole entry): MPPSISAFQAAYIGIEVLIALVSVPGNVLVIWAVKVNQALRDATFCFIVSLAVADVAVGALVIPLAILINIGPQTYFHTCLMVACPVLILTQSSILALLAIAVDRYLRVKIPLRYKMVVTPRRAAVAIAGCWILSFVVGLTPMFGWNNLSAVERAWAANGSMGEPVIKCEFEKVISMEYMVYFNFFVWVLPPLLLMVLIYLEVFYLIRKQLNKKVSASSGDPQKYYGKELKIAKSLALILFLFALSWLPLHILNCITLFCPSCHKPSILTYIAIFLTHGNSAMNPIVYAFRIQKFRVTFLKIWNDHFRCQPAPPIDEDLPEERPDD

`Cc1nc(C)c2c(n1)sc1c(NCc3ccc(C(C)(C)O)cc3)nccc12` [22g] was tested, and the inhibition at 10 µM (Adenosine A1) was 6%, the “% inh at 10 μM” value [1] was 6% and the inhibition at 10 µM (Prostanoid EP4) was 16%. The “% inh at 10 μM” value (Androgen (Testosterone)) was 5%, the inhibition at 10 µM (Neuropeptide Y Y2) was 12% and the inhibition at 10 µM (Histamine H2) was -17%. The inhibition at 10 µM (GABAB1A) was 6% and the inhibition at 10 µM [2] was -3%.
